Data reported in PMC10088020, “AA16 Oxidoreductases Boost Cellulose-Active AA9 Lytic Polysaccharide Monooxygenases from Myceliophthora thermophila” (ACS Catalysis, 2023).

Columns and labels:
AnAA16A = molecular target: T1, AnAA16A (Aspergillus nidulans, UniProt Q5BFA2); assay: H2O2 production, ferric-xylenol orange assay; assay type: biochemical; details: 1 mM Pyg as reductant, O2; pH 5.0, 30 °C
T1 construct: gene ANIA_00778; catalytic domain; C-terminal extension (residues 199-306) removed, native signal peptide used for secretion; C-terminal His-tag cut with TEV; Pichia pastoris X-33; N-terminal His not methylated; Cu(II)-saturated
T1 sequence (Q5BFA2 20-198): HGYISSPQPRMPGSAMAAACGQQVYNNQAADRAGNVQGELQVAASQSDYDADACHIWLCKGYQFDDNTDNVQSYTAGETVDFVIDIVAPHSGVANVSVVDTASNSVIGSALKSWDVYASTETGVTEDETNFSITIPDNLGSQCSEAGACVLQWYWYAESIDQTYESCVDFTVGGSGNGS

MtAA16A [1] = molecular target: T2, MtAA16A (Thermothelomyces thermophilus, UniProt G2QH80); assay: thermal shift (nDSF); details: may reflect reduction of the active-site copper rather than binding (authors)
T2 construct: gene MYCTH_2306267; mature secreted protein, homologously produced in M. thermophila C1; signal peptide removed; N-terminal His methylated; Cu(II)-saturated

MtAA16A [2] = molecular target: T2, MtAA16A; assay: H2O2-driven oxidation to coerulignone ([…],6-DMP assay); assay type: biochemical; details: co-substrate H2O2; Cu(II)-saturated enzyme

T2 sequence (G2QH80 entry or part of it): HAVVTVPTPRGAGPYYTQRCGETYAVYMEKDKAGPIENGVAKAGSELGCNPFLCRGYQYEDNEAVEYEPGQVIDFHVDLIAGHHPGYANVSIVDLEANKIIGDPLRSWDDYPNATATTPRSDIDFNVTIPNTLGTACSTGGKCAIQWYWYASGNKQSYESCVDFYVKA

Compound: Oc1cccc(O)c1O [pyrogallol]
- H2O2 production, ferric-xylenol orange assay (AnAA16A): we observed accumulation of H2O2 in MtAA16A-Pyg and AnAA16A-Pyg samples

Compound: COc1cccc(OC)c1O [syringol, 2,6-dimethoxyphenol]
- thermal stabilization (MtAA16A [1]): syringol induced significant thermal stabilization (Figure S8), which is consistent with binding
- H2O2-driven oxidation to coerulignone (2,6-DMP assay) (MtAA16A [2]): MtAA16A is a copper-dependent enzyme able to oxidize syringol in the presence of H2O2
